Common to all, as to assay: DTP human tumour cell line panel, 48 h
For experiment [1], the system named is SK-OV-3 ovarian.
Experiment [2] relates to CCRF-CEM leukemia.
Experiment [3] relates to SN12C renal.
The subject of experiment [4] is SF-268 CNS.
Experiment [5] deals with OVCAR-8 ovarian.
Experiment [6] relates to A549 NSCLC.
The subject of experiment [7] is CAKI-1 renal.
The test system of experiment [8] is NCI-H460 lung.
Experiment [9] has as its system M14 melanoma.
Experiment [10] relates to EKVX NSCLC.

Each structure is given as a SMILES string.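 Exposure lasted 48 hours, with cells grown in 96-well plates and compounds tested at five concentrations. Abbreviation: GI50, concentration required for 50% inhibition of growth. TGI: concentration producing complete growth inhibition.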

For orientation: TGI means the concentration giving total growth inhibition. Higher therefore signals lower sensitivity of the cells. For `COC(=O)C1=C(c2cc(OC)c(OC)c(OC)c2)OC(c2cc(OC)c(OC)c(OC)c2)C1COC(C)=O` (stereo not given), the total growth inhibition concentration (TGI) in [1], in experiment [2], in [3], in [4], in experiment [5] and in [6] was more than 100 µM in each case. Also, the TGI in experiment [7], in experiment [8], in experiment [9] and in [10] was more than 100 µM in each case.

A word on the GI50: it is the concentration at which growth is held to half of that of the control. With `CS(=O)c1ccc(-c2nc(-c3ccc(F)cc3)c(-c3ccncc3)[nH]2)cc1` (stereo not given), the GI50 is 18.8 µM in experiment [1]; 27.3 µM in [2]; 41.9 µM in [3]; 49.4 µM in [4]; 29.6 µM in experiment [5]; 35 µM in experiment [6]. For the same compound, the GI50 in experiment [7] is 21.6 µM; in experiment [8], 33.5 µM; in experiment [9], 11.3 µM; in experiment [10], 49 µM. The TGI in experiment [1] is more than 82 µM; in [2] it was more than 100 µM; in experiment [3], more than 100 µM; in [4] it was more than 100 µM; in experiment [5], more than 100 µM; in experiment [6] it was more than 100 µM. Moreover, the TGI was more than 81.9 µM in experiment [7], more than 100 µM in experiment [8], 43.3 µM in [9] and more than 100 µM in [10].

Take `O=C(O)c1ccc(-c2ccc(C(=O)O)cc2I)c(I)c1`: the GI50 in experiment [1], in experiment [2], in [3], in [4], in experiment [5] and in experiment [6] was more than 100 µM each time. For the same compound, the GI50 in experiment [7], in experiment [8], in experiment [9] and in experiment [10] was more than 100 µM in each case. The TGI in experiment [1], in [2], in experiment [3], in [4], in [5] and in [6] was more than 100 µM in each case. Further, the TGI in experiment [7], in experiment [8], in [9] and in experiment [10] was more than 100 µM each time.

For `OCC(O)COc1c(Cl)ccc(Cl)c1Cl` (stereo not given), the TGI in [1], in experiment [2], in [3], in [4], in experiment [5] and in experiment [6] was more than 100 µM each time. Moreover, the TGI in experiment [7], in experiment [8], in experiment [9] and in [10] was more than 100 µM each time.

On to `COc1ccc(/C(Cl)=C(\C=O)c2ccc(OC)c(OC)c2)cc1OC`, for which the TGI was more than 100 µM in [1]; more than 100 µM in experiment [2]; more than 100 µM in experiment [3]; more than 39.8 µM in experiment [4]; more than 100 µM in experiment [5]; more than 100 µM in experiment [6]. For the same compound, the total growth inhibition concentration (TGI) in [7], in experiment [8], in [9] and in experiment [10] was more than 100 µM in each case.

Take `O=[N+]([O-])c1cc(Cl)cc2c1nc(NCCO)c1ccccc12`: the total growth inhibition concentration (TGI) in experiment [1], in experiment [2], in [3], in experiment [4], in [5] and in [6] was more than 100 µM each time. The TGI was more than 100 µM in [7], 15.7 µM in experiment [8], more than 100 µM in experiment [9] and more than 100 µM in experiment [10].

In the case of `CCCCN(CCCC)CC(C)(C)C(O)c1ccc(OC)c2ccccc12` (stereo not given), the GI50 was 5.29 µM in [1]; 5.13 µM in [2]; 4.54 µM in experiment [3]; 12.6 µM in experiment [4]; 9.76 µM in experiment [5]; 11.1 µM in [6]. Moreover, the GI50 in experiment [7] was 3.06 µM; in experiment [8], 3.52 µM; in [9], 4.21 µM; in [10], 4.24 µM. For the same compound, the TGI stood at 28.7 µM in experiment [1]; 26.7 µM in experiment [2]; 20.6 µM in experiment [3]; 38.3 µM in [4]; 28.8 µM in experiment [5]; 35.3 µM in experiment [6]. The TGI was determined as 16 µM in experiment [7], 16.5 µM in [8], 17.7 µM in [9] and 22.9 µM in experiment [10].

Consider `CCCCCCNC(=O)Oc1ccc(/C(=C(\C)c2ccccc2)c2ccc(OCCN3CCCCC3)cc2)cc1`, for which the GI50 was 5.05 µM in experiment [1]; 3.05 µM in experiment [2]; 1.7 µM in [3]; 4.26 µM in experiment [4]; 2.14 µM in experiment [5]; 4.31 µM in experiment [6]. The GI50 in [7] was 2.2 µM; in experiment [8] it was 2.05 µM; in experiment [9], 1.98 µM; in experiment [10] it was 4.11 µM. For the same compound, the total growth inhibition concentration (TGI) in experiment [1] is 19.3 µM; in experiment [2], 17.2 µM; in experiment [3] it was 3.4 µM; in experiment [4], 20.2 µM; in [5], 5.94 µM; in [6], 18.6 µM. Besides, the total growth inhibition concentration (TGI) in experiment [7] was 5.11 µM; in experiment [8], 4.35 µM; in experiment [9], 3.97 µM; in experiment [10], 18 µM.

In the case of `C=C1C(=O)O[C@H]2[C@H]1[C@H](OC(=O)/C(C)=C\C)C[C@]1(CO1)[C@@H]1[C@H](OC(C)=O)C=C(C)[C@]21O`, the TGI in experiment [1] was more than 100 µM; in experiment [2] it was 15.6 µM; in [3], 30.2 µM; in experiment [4], 45.5 µM; in [5], more than 100 µM; in [6] it was more than 100 µM. Further, the TGI in [7] was 36.8 µM; in [8], more than 89.8 µM; in experiment [9] it was 54.9 µM; in [10], 33.8 µM.

Regarding `Cc1ccccc1-n1c(/C=C\c2ccccn2)nc2ccccc2c1=O`, the GI50 in experiment [1] was 35.3 µM; in experiment [2], 4.24 µM; in [3] it was 21.2 µM; in [4] it was 15.2 µM; in experiment [5] it was 21.4 µM; in experiment [6], 26 µM. The GI50 in experiment [7] was 3.32 µM; in experiment [8], 9.29 µM; in experiment [9], 14.2 µM; in experiment [10] it was 23.7 µM. Besides, the TGI in experiment [1] was more than 100 µM; in experiment [2] it was 30.1 µM; in experiment [3], more than 100 µM; in experiment [4], more than 100 µM; in experiment [5], more than 100 µM; in experiment [6], more than 100 µM. In addition, the TGI is 16.9 µM in experiment [7], 42.1 µM in [8], 33.9 µM in experiment [9] and more than 100 µM in experiment [10].

Regarding `BrC(Br)(Br)c1cnc2ccccc2n1`, the GI50 in experiment [1] is 3.38 µM; in [2], 0.49 µM; in experiment [3] it was 3.71 µM; in experiment [4] it was 4 µM; in [5], 1.76 µM; in experiment [6], 1.75 µM. The GI50 in experiment [7] was 1.52 µM; in experiment [8] it was 1.36 µM; in experiment [9], 2.05 µM; in experiment [10], 2.99 µM. Moreover, the TGI came out at 13.6 µM in [1]; 2.42 µM in experiment [2]; 14.1 µM in experiment [3]; 17.5 µM in [4]; 4.07 µM in [5]; 4.66 µM in experiment [6]. Besides, the TGI in experiment [7] was 4.41 µM; in experiment [8], 4.21 µM; in experiment [9] it was 6.42 µM; in experiment [10], 13.2 µM.

`CCOC(=O)CC1=NC(=Nc2cc(Cl)ccc2Cl)SC1`: the TGI in [1], in [2], in experiment [3], in experiment [4], in experiment [5] and in experiment [6] was more than 100 µM each time. For the same compound, the TGI in experiment [7], in [8], in experiment [9] and in experiment [10] was more than 100 µM each time.

Take `C=CC[Se]C(=O)Cc1c(C)n(C(=O)c2ccc(Cl)cc2)c2ccc(OC)cc12`: the GI50 in experiment [1] is 1.63 µM; in experiment [2] it was 2.58 µM; in [3], 1.68 µM; in experiment [4], 2.23 µM; in experiment [5] it was 1.84 µM; in experiment [6], 1.62 µM. The GI50 is 1.66 µM in experiment [7], 0.491 µM in experiment [8], 1.64 µM in [9] and 1.73 µM in [10]. Also, the TGI in experiment [1] worked out at 3.1 µM; in experiment [2] it was 7.64 µM; in [3], 3.05 µM; in experiment [4], 5.7 µM; in experiment [5], 3.68 µM; in [6] it was 6.18 µM. In addition, the TGI in experiment [7] is 3.05 µM; in experiment [8], 3.19 µM; in experiment [9], 3.16 µM; in experiment [10], 3.55 µM.

Regarding `O=C(CCCNC(=O)OCc1ccccc1)OCc1ccc2c(c1)C(=O)c1ccccc1C2=O`, the concentration for total growth inhibition (TGI) was 79 µM in [1]; more than 100 µM in experiment [2]; more than 26 µM in [3]; more than 100 µM in [4]; more than 56.2 µM in experiment [5]; more than 100 µM in experiment [6]. Moreover, the TGI was more than 89.6 µM in experiment [7], more than 100 µM in experiment [8], more than 100 µM in experiment [9] and more than 100 µM in experiment [10].

For the origin of these results see PubChem BioAssay (NCI).
